Results published in patent US20210261971A1, “COMPOSITIONS AND METHODS FOR AMELIORATING TISSUE INJURY, ENHANCING LIVER REGENERATION AND STEM CELL THERAPIES” (UNIVERSITY OF SOUTHERN CALIFORNIA, priority 2018, published 2021).
Entries after “also recorded” stand apart in the source; their conditions may differ. Like-named read-outs stand apart in the source and are kept apart here.

Key:
Format in all cases: in vivo, rat
BM sprocs = test: Hepatic engraftment of GFP+ BM sprocs after PH (% GFP+ LSECs, EGFP bone marrow transplant)
From the text: FIG. 7D illustrates the percentage of liver sinusoidal endothelial cells (LSECs) that are bone marrow-derived, i.e. derived from BM sprocs (y-axis labeled % GFP+ LSECs). Hepatic engraftment determined as the percentage of bone marrow-derived LSECs after PH is enhanced by MMP-9 ASO or intraportal MMP inhibitor, whereas systemic inhibition of MMP by doxycycline or intraperitoneal MMP inhibitor reduces hepatic engraftment of BM sprocs. Rats were transplanted with bone marrow from a transgenic EGFP rat to allow tracking of bone marrow cells. Rats were treated with one month of ASO, 2 days of doxycycline, or infusion with the MMP inhibitor followed by partial hepatectomy. On day 2 LSECs were isolated and the percentage of GFP+ LSECs was determined by flow cytometry.
Bone marrow transplantation. BM cells were obtained from one tibia and femur from the donor. Recipients underwent 1,000 cGy total body irradiation and were injected via tail vein with 50 million BM cells. Rats received oxytetracycline (200 mg/ml) diluted 1:1,000 in the drinking water starting two days before irradiation and continuing until one week after irradiation. BM was allowed to engraft for 2 months before use. BM from Lew-Tg(CAG-EGFP)ys Lewis rats was transplanted into wild-type Lewis rats and cells were tracked by GFP expression.
LSEC isolation. LSECs were isolated by collagenase perfusion, iodixanol density gradient centrifugation, and centrifugal elutriation, as previously described (22, 23). Yields averaged 86×10^6 cells per normal rat liver (range 69-95×10^6) with average viability of 94% (range 91-96%). Purity of the cells was 99%, as determined by uptake of formaldehyde-treated serum albumin (kind gift from Bard Smedsrod, University of Tromso, Tromso, Norway), a function specific to LSECs. Cells isolated by this protocol have an appropriate range of fenestrae organized in sieve plates.
(§1) Flow cytometry. Flow cytometry was performed using a FACSCalibur (BD Biosciences). Isotype control antibodies were used to determine appropriate gates, voltages, and compensation required for multivariate flow cytometry. Cell Quest Pro software was used for analysis

MMP-9 = test: Immunoblot of hepatic pro-MMP-9 and bone marrow extracellular fluid MMP-9/pro-MMP-9 after PH; details: 6 hours after PH
Procedure: Immunoblotting. Samples from freshly isolated liver were harvested using triple lysis buffer (TLB: 50 mM Tris base, 150 mM NaCl, 3 mM sodium azide, 12 mM sodium deoxycholate, 0.1% SDS, 1% Nonidet-P40) supplemented with 2 mM phenylmethylsulphonyl fluoride (PMSF), 1 mM sodium orthovanadate and 1% protease inhibitors cocktail (Santa Cruz sc-24948). Proteins were purified by centrifugation at 15,000 g at 4° C. for 10 min and quantified using DC™ Protein Assay Kit (BioRad). The samples obtained from bone marrow extracellular fluid were preserved in PBS. For MMP-9 analysis, 100 μg of total protein was used from each sample per lane and resolved on NUPAGE™ NOVEX™ 10% Bis-Tris Protein Gels using MOPS running buffer. Proteins were transferred onto 0.45 μm nitrocellulose membranes via electroblotting using XCell II™ Blot Module (Invitrogen), for 1 h, 30V. For SDF-1 and VEGF analysis, 75 μg of total protein was used from each sample per lane and resolved on NUPAGE™ NOVEX™ 4-12% Bis-Tris Protein Gels using MES running buffer. Proteins were transferred onto 0.2 μm nitrocellulose membranes via electroblotting using Trans-blot SD Semi-Dry Transfer Cell™ (Bio-rad), for 20 min, 25V. Membranes were blocked using NAP-BLOCKER™. […] Membrane digital images were acquired with the Odyssey Infrared Imaging System (LI-COR) and analyzed using the LI-COR IMAGE STUDIO™. […]

[1] = system: BM sprocs (CD133+45+31+ cells); test: Recruitment of BM sprocs after PH: number in bone marrow and circulation by immunomagnetic selection and flow cytometry; details: for number of circulating CXCR7+ sprocs: 6 hours after PH
Procedure: Sproc isolation. BM and circulating sprocs were isolated by immunomagnetic selection for CD133 using a CD133 Cell Isolation Kit (Miltenyi Biotec, Auburn, Calif.) and separation with an autoMACS Pro (Miltenyi Biotec, Auburn, Calif.), followed by FACS sorting for CD45 and CD31 (FIG. 26, or Supporting Fig S1).
To determine the number of sprocs in the circulation and BM from Lewis rats 6 hours after partial hepatectomy, CD133+ cells were isolated by immunomagnetic selection for CD133 from peripheral blood or BM. Cell suspensions were preblocked with FcR blocking reagent and incubated for 60 minutes with antibodies to rat CD45 and CD31. CD133+45+31+ cells were quantified by flow cytometry. In some experiments cells were also stained with antibody to rat CXCR7, to identify CD133+45+31+CXCR7+ cells in the circulation.
as §1

Lewis rats [2] = test: Liver histology for toxicity of MMP inhibitors given to controls
Lewis rats [3] = test: Liver regeneration after two-thirds partial hepatectomy (PH): liver-to-body weight ratio, Ki-67 proliferation; details: for hepatocyte proliferation (ki-67) compared to respective control: day 2 after PH, intraportal infusion
Procedure: Partial (70%) hepatectomy was performed under general anesthesia with ketamine-xylazine (80-90 mg/kg ip). For 70% partial hepatectomy, the median and left lateral lobes were removed. Buprenorphine SR (1 mg/kg) was used postoperatively for analgesia.
Liver-selective MMP-9 inhibition: Knockdown of MMP-9 was achieved by injection of one of two MMP-9 antisense oligonucleotides that were a kind gift from Ionis Pharmaceuticals (Ions No 283953 and 283973, Carlsbad, Calif.; 20 mg/kg intraperitoneally twice weekly for 4 weeks.
Systemic MMP inhibition: Doxycycline (Sigma, St. Louis), 15 mg/kg i.g., was given twice daily starting 2 days before the relevant study. Control studies were performed with the same dose of a chemically modified tetracycline, isochlorotetracycline, which is only a weak MMP inhibitor. In other experiments, MMP-2/9 was inhibited by infusing 2-[(4-biphenylsulfonyl)amino]-3-phenyl-propionic acid, 100 μg/kg/h, intraperitoneally with an Alzet mini-osmotic pump (model 2001, Durect Corporation, Cupertino Calif.).
Deparaffinized 5 μm sections of liver were treated with Bond ER-2 antigen retrieval (Leica Biosystems, Buffalo Grove, Ill.) for 20 min. After preblocking for 10 min with Rodent Block R (Cat #RBR962G, Biocare, Pacheco, Calif.), sections were incubated with antibody against Ki-67 for 60 min. Immunohistochemistry was performed by incubating sections with rabbit-on-rodent HRP-Polymer (cat #RMR622G, Biocare) for 30 min. Slides were rinsed in Bond diaminobenzidine (Leica Biosystems) for 10 min. After counterstaining with Bond hematoxylin, slides were dehydrated and covered using a coverslip with resinous mounting medium (Leica Biosystems).
Ki-67 positive cells were determined using photographs taken with a 20×-objective in 15 lobules per rat, n=3. To assess the percentage of proliferating hepatocytes and non-parenchymal cells, slides were coded and the percentage Ki-67 positive cells was determined blindly by X.W. To determine zonation of proliferating cells, each lobule was divided into three even fields and the total number of ki-67 positive cells/field was counted.

[4] = system: infused allogeneic sprocs; test: Model of stem cell therapy: engraftment of infused GFP+ allogeneic sprocs after PH; details: 3 months; control group 1.5%
Procedure: FIG. 8 graphically illustrates the percent LSECs as a function of engraftments of infused allogenic sprocs, and examines the concept that impairment of BM release of sprocs will favor engraftment of exogenously infused progenitor cells. […] When the percentage of cells derived from the GFP+ allogeneic progenitors was examined at 3 months, 1.5% were GFP+ in the control group versus 14% in the doxycycline group (data not shown). Method: rats were pre-treated with 2 days of doxycycline, 15 mg/kg intra-gastrically twice daily, followed by partial hepatectomy. 1 million sprocs were isolated from the livers of GFP+ rats and infused by tail vein injection. On day 2 and after 3 months LSECs were isolated and the number of GFP+ cells was determined by flow cytometry. Increased ischemia-reperfusion injury in Non-Alcoholic Fatty Liver Disease (NAFLD) due to impaired sdf-1 signaling to bone marrow sprocs can be attenuated by liver-selective MMP inhibition: Systemic MMP inhibition: Doxycycline (Sigma, St. Louis), 15 mg/kg i.g., was given twice daily starting 2 days before the relevant study. […] Purity of the cells was 99%, as determined by uptake of formaldehyde-treated serum albumin (kind gift from Bard Smedsrod, University of Tromso, Tromso, Norway), a function specific to LSECs. […]

## O=C(O)[C@@H](Cc1ccccc1)NS(=O)(=O)c1ccc(-c2ccccc2)cc1 [MMP-2/9 inhibitor, (2R)-2-[(4-Biphenylylsulfonyl)amino]-3-phenylpropionic acid]
BM sprocs; intraperitoneal
  hepatic engraftment of BM sprocs (% GFP+ LSECs): reduced
  reduction of hepatic engraftment of BM sprocs compared to control/PH: 36%
BM sprocs; intraperitoneal, listed as MMP inhibitor
  hepatic engraftment of BM sprocs (% GFP+ LSECs): reduces
BM sprocs; intraportal
  hepatic engraftment of BM sprocs (% GFP+ LSECs): enhanced
  increase of hepatic engraftment of GFP+ BM sprocs compared to control/PH: 45%
MMP-9; intraperitoneal
  increase of hepatic MMP-9 protein expression after PH: abrogated the increase in hepatic MMP-9 expression
MMP-9; intraportal
  increase of hepatic MMP-9 protein expression after PH: abrogated the increase in hepatic MMP-9 expression
[1]; intraperitoneal
  number of circulating CXCR7+ sprocs: reduced
[1]; intraportal infusion
  number of circulating CXCR7+ sprocs: increased
[1]; after PH, intraperitoneal
  reduction of CXCR7+ sprocs mobilized to the circulation: 86%
[1]; after PH, intraportal infusion
  increase of CXCR7+ sprocs in the circulation: 110%
Lewis rats [2]; intraportal
  hepatotoxicity (histology): no evidence of toxicity; also recorded: neither doxycycline nor intraportal MMP-2/9 inhibitor given to controls was hepatotoxic
Lewis rats [3]
  hepatocyte proliferation (ki-67) compared to respective control: enhances
Lewis rats [3]; listed as MMPi
  hepatocyte proliferation (ki-67) compared to respective control: enhanced

## isochlorotetracycline
BM sprocs
  hepatic engraftment of BM sprocs (% GFP+ LSECs): no effect

## C[C@H]1c2cccc(O)c2C(=O)C2=C(O)[C@]3(O)C(=O)C(C(N)=O)=C(O)[C@@H](N(C)C)[C@@H]3[C@@H](O)[C@@H]21 [doxycycline, Doxycycline]
BM sprocs; systemic
  reduction of hepatic engraftment of BM sprocs compared to control/PH: 58%
[4]
  percentage of GFP+ LSECs derived from infused allogeneic progenitors: 14%
[1]; after PH, systemic
  reduction of CXCR7+ sprocs mobilized to the circulation: 90%
  reduction of mobilization of BM sprocs to the circulation: 72%
Lewis rats [2]
  hepatotoxicity (histology): neither doxycycline nor intraportal MMP-2/9 inhibitor given to controls was hepatotoxic
Lewis rats [2]; listed as coxycycline
  hepatotoxicity (histology): no evidence of toxicity
Lewis rats [3]; day 5 after two-thirds PH, doxycycline for 2 days before PH (systemic)
  reduction of liver-to-body weight ratio compared to its solvent control: 29%
